Measured values published in EPA's ToxValDB 9.5 (doi:10.2903/j.efsa.2014.3814).
≈ marks a conversion by molar mass, not a printed value.

What was measured:
Lepomis macrochirus = conditions: acute; duration: 96 hours; mortality
Oryctolagus sp. = conditions: reproduction developmental; body weight
Pimephales promelas = conditions: chronic/long-term; duration: 33 days; growth
Ictalurus punctatus = conditions: acute; duration: 96 hours; mortality
Bibionidae = conditions: chronic/long-term; duration: 28 days
Canidae = conditions: chronic; duration: 1 years; oral; Dog Other; organ weight
Folsomia candida = conditions: chronic/long-term; duration: 28 days
Hypoaspis aculeifer = conditions: chronic/long-term; duration: 14 days
Apis mellifera = conditions: acute, mortality
Aphidius rhopalosiphi = test: LR50; higher = less toxic; conditions: not reported; mortality
Typhlodromus pyri = test: LR50; higher = less toxic; conditions: not reported; mortality

## CNC(=O)c1cc(C#N)cc(C)c1NC(=O)c1cc(Br)nn1-c1ncccc1Cl [Cyantraniliprole]
Colinus virginianus; acute, oral
  LD50: > 2250 mg/kg
Colinus virginianus; acute, oral, diet
  LC50: > 1340 mg/kg
Colinus virginianus; reproduction developmental
  NOAEL: 93.2 mg/kg-day
Lepomis macrochirus
  LC50: 2.4 µg/mL (≈ 5.07 µM)
Oryctolagus sp.
  NOAEL: 25 mg/kg-day
Pimephales promelas
  NOEC: 2.9 mg/L
Ictalurus punctatus
  LC50: > 10 µg/mL
Bibionidae
  NOEC: 0.01 mg/L
Canidae
  NOAEL: 1 mg/kg-day
Folsomia candida
  NOEC: 0.08 mg/kg
Hypoaspis aculeifer
  NOEC: 1000 mg/kg
Apis mellifera; dermal
  LD50: > 0.0934 µg/piece
Apis mellifera; oral, unspecified
  LD50: > 0.105 µg/piece
Pontoscolex corethrurus; acute, duration: 14 days, mortality
  LC50: > 1000 mg/kg
Pontoscolex corethrurus; chronic/long-term, duration: 56 days
  NOEC: > 1000 mg/kg
Rattus norvegicus; acute, oral, mortality
  LD50: > 5000 mg/kg
Rattus norvegicus; reproduction developmental, organ weight
  NOAEL: 1.2 mg/kg-day
Aphidius rhopalosiphi
  LR50: 0.102 g/ha
Typhlodromus pyri
  LR50: > 230 g/ha
